Assay results: patent US20260207624A1, “COADMINISTRATION OF ESTROGEN WITH ESTROGEN RECEPTOR MODULATOR OR DEGRADER OR ER TARGETED PROTAC FOR THE TREATMENT OF ESTROGEN RESPONSIVE CANCERS” (Duke University, priority 2022, published 2026)

Tests used:
[1] = molecular target: T1, ER (Homo sapiens, UniProt P03372); test: ER downregulation in breast cancer cell lines by in-cell western; assay type: cell-based; settings: MCF7, BT483, T47D, ZR751, CAMA1 cells, 24 hours after treatment
T1 construct: SERDs differ in the efficacy of ER downregulation in breast cancer cell lines; endogenous in cells; host or cells: MCF7, BT483, T47D, ZR751, CAMA1
T1 sequence (P03372 1-595): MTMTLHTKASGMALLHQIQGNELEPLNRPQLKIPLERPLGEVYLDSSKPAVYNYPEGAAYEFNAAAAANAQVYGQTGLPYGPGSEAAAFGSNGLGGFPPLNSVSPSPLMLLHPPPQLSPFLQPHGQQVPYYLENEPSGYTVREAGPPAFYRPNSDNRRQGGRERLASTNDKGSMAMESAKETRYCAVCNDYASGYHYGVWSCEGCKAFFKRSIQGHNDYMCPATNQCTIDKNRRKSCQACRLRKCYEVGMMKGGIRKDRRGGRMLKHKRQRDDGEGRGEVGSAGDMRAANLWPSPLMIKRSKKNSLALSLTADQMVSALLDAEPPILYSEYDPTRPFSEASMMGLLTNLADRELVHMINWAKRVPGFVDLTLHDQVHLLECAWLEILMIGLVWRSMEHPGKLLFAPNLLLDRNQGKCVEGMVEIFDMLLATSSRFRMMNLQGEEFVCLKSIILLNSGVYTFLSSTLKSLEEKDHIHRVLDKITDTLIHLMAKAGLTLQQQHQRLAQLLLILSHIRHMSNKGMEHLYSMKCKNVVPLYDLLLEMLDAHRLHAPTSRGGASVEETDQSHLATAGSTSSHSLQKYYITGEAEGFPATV
Description: FIGS. 8A-8B. SERDs differ in the efficacy of ER downregulation in breast cancer cell lines. Breast cancer cells, including MCF7, BT483, T47D, ZR751, and CAMA1, were plated in phenol red free media supplemented with charcoal stripped FBS prior to treatment in triplicate wells with the indicated SERMs or SERDs (10-11-10-5 M final concentration). 24 hours after treatment, cells were fixed to the plates, and ER levels were analyzed by in-cell western using a fluorophore conjugated secondary antibody. Average detected ER levels were normalized to well DNA content using DRAQ5 staining. Relative ER turnover was calculated as a ratio of normalized ER levels detected in treated wells to untreated wells. Data were representative of at least 3 independent experiments. Data for each cell line were graphed in 2 panels to categorize SERDs by chemical properties, separating basic SERDs (FIG. 8A) and those having carboxylic acid group(s) (FIG. 8B). Serm-like SERDs bazedoxifene and elacestrant were also presented in (FIG. 8A) for reference. Fulvestrant was included on both graphs for all cell lines to facilitate comparison.

[2] = system: Breast cancer cells; test: Anti-proliferative activity in breast cancer cell lines (DNA content, Hoechst staining); assay type: cell-based; settings: with estradiol 0.1 nM, 7 days after treatment
Description: FIGS. 9A-9C. Anti-proliferative activities of SERDs in select breast cancer cell lines differ primarily in potency. Breast cancer cells were plated in phenol red free media supplemented with charcoal stripped FBS prior to treatment in triplicate wells with the indicated SERMs and SERM-like SERDs (FIG. 9A), acidic SERDs (FIG. 9B), basic SERDs (FIG. 9C) at 10^-12 to 10^-5 M final concentration, followed by addition of estradiol (E2, 0.1 nM) or insulin (2 nM, MCF7 cell line only, bottom panels). 7 days after treatment, plates were harvested and DNA quantitated using fluorescence following Hoechst staining. Average detected fluorescence was normalized to wells receiving no ligand treatment, and relative change in DNA fluorescence was calculated compared to wells treated only with E2. Data are representative of at least 3 independent experiments.

- ER downregulation / ER degradation [1]: generally the least efficient SERD
Compound: CCNCCc1ccc(CN(CC)c2cc(OC)ccc2[C@@H]2CCc3cc(O)ccc3C2)cc1 [elacestrant]
- inhibition of cellular proliferation [2]: efficacy similar to that observed for other SERDs
